Assay results from patent publication US4362725A, “Cephalosporins” (Dr. Karl Thomae Gesellschaft mit beschrankter Haftung, priority 1980, dated 1982).
In brackets after ≈: the same amount, converted by molar mass.

Tests used:
[1] = test system: Pseudomonas aeruginosa BC 19; test: In vitro serial dilution test in the microtiter system (MIC), Pseudomonas BC 19; format: cell-based; settings: BC19, 18 to 20 h at 37° C., read-out: MIC Pseud. aerug. BC 19
Method: (§1) The tests were performed using the serial dilution test in the microtiter system. The effect of the test compound on bacteristasis was examined in a liquid medium at the following concentrations: >64, 64 32, 16, 8, 4, 2, 1, 0.5, 0.25, 0.125, 0.06, 0.03 and 0.015 μgm/ml. The nutrient medium consisted of 10 gm of peptone, 8 gm of meat extract oxoid, 3 gm of sodium chloride, and 2 gm of sec. sodium phosphate diluted with distilled water to […] (pH 7.2-7.4). Only in the test against streptococci 1% of glucose was added. The age of the primary cultures was approximately 20 hours. The standardization of the bacteria suspension was effected using a photometer according to the method of Eppendorf (test tube .phi.-mm, filter 546 nm), using for comparison a barium sulfate suspension formed by the addition of 3.0 ml of 1% barium chloride solution to 97 ml of 1% sulfuric acid. After standardization, the test microorganisms were further diluted to a concentration of 1:1500, using a sodium chloride solution.
(§2) 16 mgm of the particular test compound were put into a 10 ml measuring flask, and the flask was subsequently filled to the mark with solvent. The further dilution series was standardized with distilled water or the appropriate solvent.
(§3) The cavities of the microtiter plates were filled with 0.2 ml of nutrient medium. 0.01 ml of the appropriate test compound solution was then added, followed by inoculation with 0.01 ml (1 drop) of the standardized bacteria suspension. The bacteria were incubated at 37° C. for 18 to 20 hours. Control tests using only the solvent were carried out simultaneously.
(§4) The readings were made macroscopically to determine the minimum inhibitory concentration (the lowest still bacteriostatically effective concentration).
(§5) The following test organisms were used:
(§6) Staphylococcus aureus SG 511, Escherichia coli ATCC11 775, Pseudomonas aeruginosa hamburgensis and Pseudomonas aeruginosa BC 19, Serratia marcescens ATCC 13 880, Klebsiella pneumoniae ATCC 10 031 and BC 6, Proteus mirabilis BC 17, Proteus rettgeri BC 7, Enterobacter Cloaceae ATCC 13047 and E. coli R+TEM (β-lactamase carrier).

[2] = test system: Klebsiella pneumoniae ATCC 10 031; test: In vitro serial dilution test in the microtiter system (MIC), Klebsiella ATCC 10031; format: cell-based; settings: 18 to 20 h at 37° C., read-out: MIC Klebs. pneum. ATCC 10031
Method: as §1, §2, §3, §4, §5, §6

[3] = test system: E. coli R+TEM (β-lactamase carrier); test: In vitro serial dilution test in the microtiter system (MIC), E. coli R+TEM; format: cell-based; settings: Escherichia coli, read-out: MIC E. coli R + TEM
Method: as §1, §2, §3, §4, §5, §6

[4] = test system: Enterobacter Cloaceae ATCC 13047; test: In vitro serial dilution test in the microtiter system (MIC), Enterobacter; format: cell-based; settings: ATCC13047, 18 to 20 h at 37° C., read-out: MIC Eb. cloaceae
Method: as §1, §2, §3, §4, §5, §6

[5] = test system: Escherichia coli ATCC11 775; test: In vitro serial dilution test in the microtiter system (MIC), E. coli; format: cell-based; settings: 18 to 20 h at 37° C., read-out: MIC E. coli ATCC 11775
Method: as §1, §2, §3, §4, §5, §6

[6] = test system: Proteus rettgeri BC 7; test: In vitro serial dilution test in the microtiter system (MIC), Proteus rettgeri; format: cell-based; settings: Providencia rettgeri, BC7; 18 to 20 h at 37° C.; read-out: MIC Prot. rettg. BC 7
Method: as §1, §2, §3, §4, §5, §6

[7] = test system: Pseudomonas aeruginosa hamburgensis; test: In vitro serial dilution test in the microtiter system (MIC), Pseudomonas Hbg.; format: cell-based; settings: 18 to 20 h at 37° C., read-out: MIC Pseud. aerug. Hbg.
Method: as §1, §2, §3, §4, §5, §6

[8] = test system: Staphylococcus aureus SG 511; test: In vitro serial dilution test in the microtiter system (MIC), S. aureus; format: cell-based; settings: SG511, 18 to 20 h at 37° C.
Method: as §1, §2, §3, §4, §5, §6

[9] = test system: Klebsiella pneumoniae BC 6; test: In vitro serial dilution test in the microtiter system (MIC), Klebsiella BC 6; format: cell-based; settings: BC6, 18 to 20 h at 37° C., read-out: MIC Klebs. pneum. BC 6
Method: as §1, §2, §3, §4, §5, §6

[10] = test system: Serratia marcescens ATCC 13 880; test: In vitro serial dilution test in the microtiter system (MIC), Serratia; format: cell-based; settings: 18 to 20 h at 37° C., read-out: MIC Ser. marcesc. ATCC 13880
Method: as §1, §2, §3, §4, §5, §6

[11] = test system: Proteus mirabilis BC 17; test: In vitro serial dilution test in the microtiter system (MIC), Proteus mirabilis; format: cell-based; settings: BC17, 18 to 20 h at 37° C., read-out: MIC Prot. mir. BC 17
Method: as §1, §2, §3, §4, §5, §6

[12] = test system: Pseudomonas aeruginosa BC 19; test: In vivo activity in mice, experimental Pseudomonas infection; parameters: species or system mice (female, NMRI strain); settings: BC19, sc, 168 h, per dose, s.c., 3 times (1, 3 and 5 hours after i.p. Pseudomonas infection), 7 days observation, read-out: ED50 (dose at which 50% of the animals survive)
Method: (§7) Several of the compounds of this invention were tested in vivo against experimental infections in mice. E. coli ATCC 11 775 and Pseudomonas aeruginosa BC 19 were used as the pathogenic bacteria. An interaperitoneal infection was induced with 0.2 ml of a bacterial suspension (containing 5% of mucin). This corresponds to approximately 1.4×10^6 E. coli germs or to 1.3×10^6 pseudomonas germs per mouse. Female mice of the NMRI strain were divided up into groups of 10 animals of which 2 groups remained untreated while the remaining groups were subcutaneously administered various doses of the particular cephalosporins according to the invention for the purpose of determining the ED50 (dose at which 50% of the animals survive). In the case of the E. coli infection, the treatment was applied once (1 hour after infection) while the pseudomonas infection was treated 3 times (1, 3 and 5 hours after infection).
(§8) In both cases, the observation period was 7 days. The results of these tests, carried out with typical representatives of the cephalosporins according to the invention, are shown in Table 3 below.

[13] = test system: E. coli ATCC 11 775; test: In vivo activity in mice, experimental E. coli infection; parameters: species or system mice (female, NMRI strain); settings: Escherichia coli, ATCC11, sc, 168 h; s.c., once 1 hour after i.p. E. coli infection; 7 days observation; read-out: ED50 (dose at which 50% of the animals survive)
Method: as §7, §8

Structure (SMILES)	MIC [1]	MIC [2]	MIC [3]	MIC [4]	MIC [5]	MIC [6]	MIC [7]	MIC [8]	MIC [9]	MIC [10]	MIC [11]	ED50 [12]	ED50 [13]
CC(=O)NCCn1nnnc1SCC1=C(C(=O)O)N2C(=O)[C@@H](NC(=O)C(NC(=O)Nc3cnc(Nc4ccc(S(N)(=O)=O)cc4)nc3O)c3ccc(O)cc3)[C@H]2SC1 (stereo partly drawn) [Compound 37]	4 µg/mL (≈ 4.67 µM)	0.12 µg/mL (≈ 0.14 µM)	8 µg/mL	0.12 µg/mL (≈ 0.14 µM)	0.12 µg/mL (≈ 0.14 µM)	0.25 µg/mL (≈ 0.292 µM)	8 µg/mL (≈ 9.35 µM)	2 µg/mL (≈ 2.34 µM)	0.12 µg/mL (≈ 0.14 µM)	0.12 µg/mL (≈ 0.14 µM)	0.06 µg/mL (≈ 0.0701 µM)	–	–
NS(=O)(=O)c1ccc(Nc2ncc(NC(=O)NC(C(=O)N[C@@H]3C(=O)N4C(C(=O)O)=C(CSc5nnnn5CC(=O)O)CS[C@H]34)c3ccc(O)cc3)c(O)n2)cc1 (stereo partly drawn) [Compound 5]	8 µg/mL (≈ 9.65 µM)	0.5 µg/mL (≈ 0.603 µM)	32 µg/mL	2 µg/mL (≈ 2.41 µM)	0.5 µg/mL (≈ 0.603 µM)	0.25 µg/mL (≈ 0.302 µM)	8 µg/mL (≈ 9.65 µM)	4 µg/mL (≈ 4.83 µM)	0.5 µg/mL (≈ 0.603 µM)	0.5 µg/mL (≈ 0.603 µM)	0.12 µg/mL (≈ 0.145 µM)	–	–
C[S+]([O-])CCn1nnnc1SCC1=C(C(=O)O)N2C(=O)[C@@H](NC(=O)C(NC(=O)Nc3cnc(Nc4ccc(S(N)(=O)=O)cc4)nc3O)c3ccc(O)cc3)[C@H]2SC1 (stereo partly drawn) [Compound 21]	8 µg/mL (≈ 9.29 µM)	0.25 µg/mL (≈ 0.29 µM)	8 µg/mL	–	0.12 µg/mL (≈ 0.139 µM)	0.5 µg/mL (≈ 0.581 µM)	8 µg/mL (≈ 9.29 µM)	1 µg/mL (≈ 1.16 µM)	0.25 µg/mL (≈ 0.29 µM)	0.25 µg/mL (≈ 0.29 µM)	0.12 µg/mL (≈ 0.139 µM)	–	–
CS(=O)(=O)CCn1nnnc1SCC1=C(C(=O)O)N2C(=O)[C@@H](NC(=O)C(NC(=O)Nc3cnc(Nc4ccc(S(N)(=O)=O)cc4)nc3O)c3ccc(O)cc3)[C@H]2SC1 (stereo partly drawn) [Compound 30]	4 µg/mL (≈ 4.56 µM)	0.5 µg/mL (≈ 0.57 µM)	8 µg/mL	0.5 µg/mL (≈ 0.57 µM)	0.12 µg/mL (≈ 0.137 µM)	1 µg/mL (≈ 1.14 µM)	8 µg/mL (≈ 9.12 µM)	2 µg/mL (≈ 2.28 µM)	0.5 µg/mL (≈ 0.57 µM)	0.5 µg/mL (≈ 0.57 µM)	0.06 µg/mL (≈ 0.0684 µM)	10 to 20 mg/kg	~0.6 mg/kg
Cn1c(SCC2=C(C(=O)O)N3C(=O)[C@@H](NC(=O)C(NC(=O)Nc4cnc(Nc5ccc(S(N)(=O)=O)cc5)nc4O)c4ccc(O)cc4)[C@H]3SC2)nnc(O)c1=O (stereo partly drawn) [Compound 16]	4 µg/mL (≈ 4.83 µM)	0.12 µg/mL (≈ 0.145 µM)	4 µg/mL	0.25 µg/mL (≈ 0.302 µM)	0.12 µg/mL (≈ 0.145 µM)	0.25 µg/mL (≈ 0.302 µM)	8 µg/mL (≈ 9.66 µM)	0.12 µg/mL (≈ 0.145 µM)	0.25 µg/mL (≈ 0.302 µM)	0.25 µg/mL (≈ 0.302 µM)	0.12 µg/mL (≈ 0.145 µM)	10 to 20 mg/kg	~0.8 mg/kg
NS(=O)(=O)c1ccc(Nc2ncc(NC(=O)NC(C(=O)N[C@@H]3C(=O)N4C(C(=O)O)=C(CSc5nnnn5CCO)CS[C@H]34)c3ccc(O)cc3)c(O)n2)cc1 (stereo partly drawn) [Compound 7]	4 µg/mL (≈ 4.91 µM)	0.12 µg/mL (≈ 0.147 µM)	4 µg/mL	0.25 µg/mL (≈ 0.307 µM)	0.03 µg/mL (≈ 0.0368 µM)	0.25 µg/mL (≈ 0.307 µM)	4 µg/mL (≈ 4.91 µM)	1 µg/mL (≈ 1.23 µM)	0.12 µg/mL (≈ 0.147 µM)	0.12 µg/mL (≈ 0.147 µM)	0.06 µg/mL (≈ 0.0736 µM)	6.3 mg/kg	~0.3 mg/kg
CS(=O)(=O)NCCn1nnnc1SCC1=C(C(=O)O)N2C(=O)[C@@H](NC(=O)C(NC(=O)Nc3cnc(Nc4ccc(S(N)(=O)=O)cc4)nc3O)c3ccc(O)cc3)[C@H]2SC1 (stereo partly drawn) [Compound 36]	2 µg/mL (≈ 2.24 µM)	0.12 µg/mL (≈ 0.135 µM)	8 µg/mL	0.12 µg/mL (≈ 0.135 µM)	0.03 µg/mL (≈ 0.0336 µM)	0.25 µg/mL (≈ 0.28 µM)	4 µg/mL (≈ 4.48 µM)	2 µg/mL (≈ 2.24 µM)	0.12 µg/mL (≈ 0.135 µM)	0.25 µg/mL (≈ 0.28 µM)	0.06 µg/mL (≈ 0.0673 µM)	–	–
Cc1nnc(SCC2=C(C(=O)O)N3C(=O)[C@@H](NC(=O)Cn4cnnn4)[C@H]3SC2)s1 [Cephazolin, reference compound]	> 100 µg/mL	1 µg/mL (≈ 2.2 µM)	4 µg/mL	> 100 µg/mL	4 µg/mL (≈ 8.8 µM)	> 100 µg/mL	> 100 µg/mL	0.06 µg/mL (≈ 0.132 µM)	2 µg/mL (≈ 4.4 µM)	> 100 µg/mL	4 µg/mL (≈ 8.8 µM)	–	–
CO/N=C(\C(=O)N[C@@H]1C(=O)N2C(C(=O)O)=C(COC(N)=O)CS[C@H]12)c1ccco1 [Cefuroxim, reference compound]	> 100 µg/mL	2 µg/mL (≈ 4.71 µM)	4 µg/mL	32 µg/mL (≈ 75.4 µM)	8 µg/mL (≈ 18.9 µM)	2 µg/mL (≈ 4.71 µM)	> 100 µg/mL	1 µg/mL (≈ 2.36 µM)	4 µg/mL (≈ 9.43 µM)	8 µg/mL (≈ 18.9 µM)	0.5 µg/mL (≈ 1.18 µM)	–	> 100 mg/kg
